Data on four molecules can be found in patent US7678788B2, “Diazabicyclic aryl derivatives” (Neurosearch A/S, priority 2003, dated 2010).

For this assay, the target named is T1, α7-subtype of nicotinic receptors (Rattus norvegicus, UniProt Q05941).
T1 construct: Cerebral cortices from male Wistar rats (150-250 g) are homogenised; from tissue; host or cells: rat cerebral cortex membrane homogenate
T1 sequence (Q05941 23-502): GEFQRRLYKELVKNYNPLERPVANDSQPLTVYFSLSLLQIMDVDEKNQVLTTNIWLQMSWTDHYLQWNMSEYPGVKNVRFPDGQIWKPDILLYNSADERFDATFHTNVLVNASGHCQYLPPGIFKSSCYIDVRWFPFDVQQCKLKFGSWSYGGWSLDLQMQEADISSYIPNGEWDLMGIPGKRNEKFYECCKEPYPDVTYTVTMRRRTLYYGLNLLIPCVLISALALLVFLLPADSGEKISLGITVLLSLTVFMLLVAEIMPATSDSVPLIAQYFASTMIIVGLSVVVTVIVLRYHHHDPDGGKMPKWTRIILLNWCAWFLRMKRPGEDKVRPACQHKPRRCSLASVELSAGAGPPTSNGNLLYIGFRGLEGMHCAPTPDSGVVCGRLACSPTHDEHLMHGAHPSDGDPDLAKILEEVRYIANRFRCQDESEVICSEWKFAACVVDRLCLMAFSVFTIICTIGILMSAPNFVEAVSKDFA
Kind of assay: In vitro inhibition of 3H-α-bungarotoxine binding in rat brain. As to conditions: rat cerebral cortex homogenate; 3H-α-bungarotoxine 2 nM; 2 hours at 37° C.
As to `O=C(c1ccco1)N1CCN2CCC1CC2` [Compound A1, (1,4-Diaza-bicyclo[3.2.2]-non-4-yl)-furan-2-yl-methanone], the IC50 was 540 nM.
As to `O=C(c1ccc(-c2cccc(C(F)(F)F)c2)o1)N1CCN2CCC1CC2` [Compound A5, (1,4-Diaza-bicyclo[3.2.2]-non-4-yl)-5-(3-trifluoromethylphenyl)-furan-2-yl-methanone], the IC50 was 51 nM.
The figure for `Nc1cccc(-c2ccc(C(=O)N3CCN4CCC3CC4)o2)c1` [Compound C3, (1,4-Diaza-bicyclo[3.2.2]-non-4-yl)-5-(3-aminophenyl)-furan-2-yl-methanone] is 80 nM; for `O=CNc1ccc(-c2ccc(C(=O)N3CCN4CCC3CC4)o2)cc1` [Compound F1, (1,4-Diaza-bicyclo[3.2.2]-non-4-yl)-5-(4-formylaminophenyl)-furan-2-yl-methanone] it is 17 nM.

As usually defined, the IC50 is the point on the concentration scale where inhibition reaches its midpoint. High values mean weaker potency in that assay, low ones greater potency in that assay.
